The source of these data is US20260085067A1, “CYCLIC SULFONAMIDE RIBONUCLEOTIDE REDUCTASE (RNR) INHIBITORS AND USES THEREOF” (Boundless Bio, Inc., priority 2022, published 2026).

One may read the IC50 as the concentration at which inhibition is half-maximal. The low end stands for inhibition by little substance, the high end for a need for much substance.

For one data set, the system named is human hepatocytes. Kind of data set: Human hepatocyte stability assay. The data set is classed as in vitro ADME. Particulars: 0.5×10^6 viable cells/ml, time points 0.5 and 60 minutes. The method, then:
1. 10 mM stock solutions of test compounds and positive control were prepared in DMSO. Thawing medium and supplement incubation medium (serum-free) were placed in a 37° C. water bath for at least 15 minutes prior to use.
2. Stock solutions were diluted to 100 μM by combining 198 μL acetonitrile and 2 μL of 10 mM stock solution. Verapamil was use as positive control in the assay.
3. Vials of cryopreserved human hepatocytes were removed from storage, while ensuring that vials remain at cryogenic temperatures. The pressure was removed by loosening and re-tightening the cap. The vials were thawed in a 37° C. water bath with gentle shaking. Vials remained in the water bath until all ice crystals had dissolved and were no longer visible. Vials were sprayed with 70% ethanol before being transferred to a biosafety cabinet. Then the contents were poured into a 50 mL thawing medium conical tube. Vials were centrifuged at 100 g for 10 minutes at room temperature. Thawing medium was aspirated and hepatocytes were re-suspended with serum-free incubation medium to yield ˜1.5×10^6 cells/mL.
4. Cell viability and density were counted using Cellometer® Vision, and then cells were diluted with serum-free incubation medium to a working cell density of 0.5×10^6 viable cells/ml.
5. Aliquots of 198 μL hepatocytes were dispensed into each well of a 96-well non-coated plate. The plate was placed in the incubator on an orbital shaker at 500 rpm for approximately 10 minutes.
6. Aliquots of 2 μL of the 100 μM test compounds or verapamil were added into respective wells of the non-coated 96-well plate to start the reaction. This assay was performed in duplicate. The plate was incubated in the incubator on an orbital shaker at 500 rpm for the designed time points.
7.25 μL of contents were transferred and mixed with 5 volumes (125 μL) of cold acetonitrile with IS (100 nM alprazolam, 200 nM caffeine, 100 nM labetalol and 100 nM tolbutamide) to terminate the reaction at time points of 0.5 and 60 minutes. Samples were centrifuged for 30 minutes at 3,220 g. Then transfer 100 μL of the supernatant to new 96-well plates for analysis. Add 100 μL of distilled water to each sample and mix for analysis by LC-MS/MS.
All calculations were carried out using Microsoft Excel. Peak areas were determined from extracted ion chromatograms. The in vitro half-life (tin) of the parent compound was determined by regression analysis of the percent parent disappearance vs. time curve. • a. The in vitro half-life (in vitro tin) was determined from the slope value: in vitro t1/2=0.693/k • b. Conversion of the in vitro tin (in min) into the in vitro intrinsic clearance (in vitro CLint, in μL/min/10^6 cells) was done using the following equation: […]

In data set [1] the test system is pCHK1 (S345) in Colo320 DM cells. Kind of data set: Alphalisa assay, detection of pCHK1 (S345) in Colo320 DM cells. The data set is classed as cell-based, human. To be noted: Homo sapiens, COLO 320DM, compound overnight (approximately 16 hours). An outline of the steps:
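Colo320 DM cells plated overnight, then exposed to compound for about 16 h at 37 °C (DMSO <0.5%). Cells lysed and phospho-CHK1 (S345) quantified by AlphaLisa SureFire with sequential 60 min acceptor and donor incubations at room temperature.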
A general note: Alpha assays give light when donor and acceptor beads are brought close together.

Another data set addresses T1, RNR (RNR1:RNR2 1:1) (Homo sapiens, UniProt P23921).
T1 sequence (P23921 1-792): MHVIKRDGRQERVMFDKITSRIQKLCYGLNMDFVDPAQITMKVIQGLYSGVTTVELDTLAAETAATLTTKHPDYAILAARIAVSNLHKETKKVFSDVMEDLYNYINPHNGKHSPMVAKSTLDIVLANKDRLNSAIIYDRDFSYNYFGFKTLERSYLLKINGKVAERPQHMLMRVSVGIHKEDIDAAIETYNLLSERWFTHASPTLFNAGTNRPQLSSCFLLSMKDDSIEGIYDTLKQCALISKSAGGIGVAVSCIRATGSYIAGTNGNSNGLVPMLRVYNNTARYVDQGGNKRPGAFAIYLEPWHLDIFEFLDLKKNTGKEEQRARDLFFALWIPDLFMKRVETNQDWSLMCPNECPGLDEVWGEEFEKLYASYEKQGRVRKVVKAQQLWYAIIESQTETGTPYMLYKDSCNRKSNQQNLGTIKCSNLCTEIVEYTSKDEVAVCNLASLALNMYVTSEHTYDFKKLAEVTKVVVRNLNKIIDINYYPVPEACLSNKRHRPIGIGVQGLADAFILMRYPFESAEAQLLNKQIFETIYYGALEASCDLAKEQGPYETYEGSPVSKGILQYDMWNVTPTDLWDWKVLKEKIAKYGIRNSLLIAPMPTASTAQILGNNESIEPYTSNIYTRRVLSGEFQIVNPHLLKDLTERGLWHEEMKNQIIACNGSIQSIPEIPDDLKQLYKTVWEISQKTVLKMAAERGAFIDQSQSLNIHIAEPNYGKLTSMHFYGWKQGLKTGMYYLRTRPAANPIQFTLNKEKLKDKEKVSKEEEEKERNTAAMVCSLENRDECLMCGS
Kind of data set: RNR enzyme activity, rapid-fire mass spectrometry (RF/MS) assay. The data set is classed as biochemical. Particulars: [RNR] 50 nM, 1:1 RNR1:RNR2; CDP 5 μM; ATP 1 mM; 37° C., 45 min; compounds screened up to 50 μM. An outline of the steps:
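Human RNR (50 nM final, RNR1:RNR2 1:1) pre-incubated 15 min at room temperature, then reacted 45 min at 37 °C with 5 μM CDP and 1 mM ATP, no NADPH. Reaction quenched with 6% HCOOH; product quantified by rapid-fire mass spectrometry.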

For `CON1CN([C@H](c2n[nH]c(=O)o2)[C@H](C)c2c(F)ccc(C)c2C)S(=O)(=O)c2ccc(Cl)cc21` [Example 116, 5-((1S,2R)-1-(6-chloro-4-methoxy-1,1-dioxido-3,4-dihydro-2H-benzo[e][1,2,4]thiadiazin-2-yl)-2-(6-fluoro-2,3-dimethylphenyl)propyl)-1,3,4-oxadiazol-2 (3H)-one], in the data set on human hepatocytes, the Clhep entry is listed as “B (10 ml/min/kg < Clhep ≤ 20 ml/min/kg)”. The same compound showed an IC50 in data set [1] of no more than 1000 nM.
For `Cc1ccc(F)c([C@@H](C)[C@@H](c2n[nH]c(=O)o2)N2CN(C3CCOC(C)(C)C3)c3cc(Cl)ccc3S2(=O)=O)c1C` (single isomer, unassigned) [Example 89], in that order: “B (10 ml/min/kg < Clhep ≤ 20 ml/min/kg)” and no more than 1000 nM.
In the same order, the values of `Cc1ccc(F)c([C@@H](C)[C@@H](c2n[nH]c(=O)o2)N2CN(CCN3CCOCC3)c3nc(Cl)ccc3S2(=O)=O)c1C` [Example 93, 5-((1S,2R)-1-(6-chloro-4-(2-morpholinoethyl)-1,1-dioxido-3,4-dihydro-2H-pyrido[2,3-e][1,2,4]thiadiazin-2-yl)-2-(6-fluoro-2,3-dimethylphenyl)propyl)-1,3,4-oxadiazol-2 (3H)-one] are “A (0 ml/min/kg ≤ Clhep ≤ 10 ml/min/kg)” and no more than 1000 nM.
In the same order, the values of `Cc1ccc(F)c([C@@H](C)[C@@H](c2n[nH]c(=O)o2)N2CN([C@H](C)CO)c3cc(Cl)ccc3S2(=O)=O)c1C` [Example 117, 5-((1S,2R)-1-(6-chloro-4-((R)-1-hydroxypropan-2-yl)-1,1-dioxido-3,4-dihydro-2H-benzo[e][1,2,4]thiadiazin-2-yl)-2-(6-fluoro-2,3-dimethylphenyl)propyl)-1,3,4-oxadiazol-2 (3H)-one] are “B (10 ml/min/kg < Clhep ≤ 20 ml/min/kg)” and 1000 to 5000 nM.
As for `Cc1ccc(F)c([C@@H](C)[C@@H](c2n[nH]c(=O)o2)N2CN(C3CN(CC(F)(F)F)C3)c3cc(Cl)ccc3S2(=O)=O)c1C` [Example 96, 5-((1S,2R)-1-(6-chloro-1,1-dioxido-4-(1-(2,2,2-trifluoroethyl)azetidin-3-yl)-3,4-dihydro-2H-benzo[e][1,2,4]thiadiazin-2-yl)-2-(6-fluoro-2,3-dimethylphenyl)propyl)-1,3,4-oxadiazol-2 (3H)-one], the IC50 is less than 20 nM against RNR (RNR1:RNR2 1:1) and no more than 1000 nM in data set [1].
On to `Cc1ccc(F)c([C@@H](C)[C@@H](c2n[nH]c(=O)o2)N2CN(C[C@@H]3CCCO3)c3cc(Cl)ccc3S2(=O)=O)c1C` [Example 62, 5-((1S,2R)-1-(6-chloro-1,1-dioxido-4-(((S)-tetrahydrofuran-2-yl)methyl)-3,4-dihydro-2H-benzo[e][1,2,4]thiadiazin-2-yl)-2-(6-fluoro-2,3-dimethylphenyl)propyl)-1,3,4-oxadiazol-2 (3H)-one], for which the IC50 was less than 20 nM on RNR (RNR1:RNR2 1:1) and no more than 1000 nM in data set [1].
For the compound `COCc1cc(Cl)cc2c1S(=O)(=O)N([C@H](c1n[nH]c(=O)o1)[C@H](C)c1c(F)ccc(C)c1C)CN2C` [Example 70, 5-((1S,2R)-1-(6-chloro-8-(methoxymethyl)-4-methyl-1,1-dioxido-3,4-dihydro-2H-benzo[e][1,2,4]thiadiazin-2-yl)-2-(6-fluoro-2,3-dimethylphenyl)propyl)-1,3,4-oxadiazol-2 (3H)-one], the half-inhibitory concentration (IC50) against RNR (RNR1:RNR2 1:1) lay in the range of 20 to 100 nM; in data set [1], 1000 to 5000 nM.
For `Cc1ccc(F)c([C@@H](C)[C@@H](c2n[nH]c(=O)o2)N2CN(C)c3cc(Cl)cc(CBr)c3S2(=O)=O)c1C` [Example 76, 5-((1S,2R)-1 (8-(bromomethyl)-6-chloro-4-methyl-1,1-dioxido-3,4-dihydro-2H-benzo[e][1,2,4]thiadiazin-2-yl)-2-(6-fluoro-2,3-dimethylphenyl)propyl)-1,3,4-oxadiazol-2 (3H)-one], in that order: less than 20 nM and 1000 to 5000 nM.
`Cc1ccc(F)c([C@@H](C)[C@@H](c2n[nH]c(=O)o2)N2CN(C3CC3)c3cc(Cl)cc(C(C)Cl)c3S2(=O)=O)c1C` (stereo partly drawn) [Example 100, 5-((1S,2R)-1-(6-chloro-8-(1-chloroethyl)-4-cyclopropyl-1,1-dioxido-3,4-dihydro-2H-benzo[e][1,2,4]thiadiazin-2-yl)-2-(6-fluoro-2,3-dimethylphenyl)propyl)-1,3,4-oxadiazol-2 (3H)-one]: the IC50 was 20 to 100 nM against RNR (RNR1:RNR2 1:1) and 1000 to 5000 nM in data set [1].
With `Cc1ccc(F)c([C@@H](C)[C@@H](c2n[nH]c(=O)o2)N2CN([C@H]3CCN(CCF)C3)c3cc(Cl)ccc3S2(=O)=O)c1C` [Example 106, 5-((1S,2R)-1-(6-chloro-4-((S)-1-(2-fluoroethyl)pyrrolidin-3-yl)-1,1-dioxido-3,4-dihydro-2H-benzo[e][1,2,4]thiadiazin-2-yl)-2-(6-fluoro-2,3-dimethylphenyl)propyl)-1,3,4-oxadiazol-2 (3H)-one], the 50% inhibitory concentration (IC50) on RNR (RNR1:RNR2 1:1) was less than 20 nM; in data set [1], no more than 1000 nM.
As to `Cc1ccc(F)c([C@@H](C)[C@@H](c2n[nH]c(=O)o2)N2COc3cc(Cl)ccc3S2(=O)=O)c1C` [Example 7, 5-((1S,2R)-1-(6-chloro-1,1-dioxidobenzo[e][1,4,3]oxathiazin-2 (3H)-yl)-2-(6-fluoro-2,3-dimethylphenyl)propyl)-1,3,4-oxadiazol-2 (3H)-one], the 50% inhibitory concentration (IC50) at RNR (RNR1:RNR2 1:1) is 20 to 100 nM; in data set [1], no more than 1000 nM.
In the same order, the values of `COC(C)(C)CN1CN([C@H](c2n[nH]c(=O)o2)[C@H](C)c2c(F)ccc(C)c2C)S(=O)(=O)c2ccc(Cl)cc21` [Example 98, 5-((1S,2R)-1-(6-chloro-4-(2-methoxy-2-methylpropyl)-1,1-dioxido-3,4-dihydro-2H-benzo[e][1,2,4]thiadiazin-2-yl)-2-(6-fluoro-2,3-dimethylphenyl)propyl)-1,3,4-oxadiazol-2 (3H)-one] are less than 20 nM and no more than 1000 nM.
For `[2H]C([2H])([2H])N1CN([C@H](c2n[nH]c(=O)o2)[C@H](C)c2c(F)ccc(C)c2C)S(=O)(=O)c2ccc(Cl)cc21` [Example 9, 5-((1S,2R)-1-(6-chloro-4-(methyl-d3)-1,1-dioxido-3,4-dihydro-2H-benzo[e][1,2,4]thiadiazin-2-yl)-2-(6-fluoro-2,3-dimethylphenyl)propyl)-1,3,4-oxadiazol-2 (3H)-one], in that order: 20 to 100 nM and no more than 1000 nM.
In the same order, the values of `Cc1ccc(F)c([C@@H](C)[C@@H](c2n[nH]c(=O)o2)N2CN(C3CCOCC3)c3nc(Cl)ccc3S2(=O)=O)c1C` [Example 87, 5-((1S,2R)-1-(6-chloro-1,1-dioxido-4-(tetrahydro-2H-pyran-4-yl)-3,4-dihydro-2H-pyrido[2,3-e][1,2,4]thiadiazin-2-yl)-2-(6-fluoro-2,3-dimethylphenyl)propyl)-1,3,4-oxadiazol-2 (3H)-one] are less than 20 nM and no more than 1000 nM.
